# Assay results taken from the METLIN SMRT retention time set (Domingo-Almenara et al. 2019).
# Test: gradient 5% acetonitrile 3 min, to 50% in 2 min, to 85% in 15 min, held 3 min, 100 µL/min
# Settings: column: Zorbax Extend-C18 2.1 x 50 mm; eluents: water / acetonitrile, 0.1% formic acid
# Procedure, shortened: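 Retention times come from adduct peaks that were picked computationally and then checked by hand. The standards, pure and pooled in mixtures of ~100 molecules, were run on a Zorbax Extend-C18 column (2.1 × 50 mm, 1.8 μm) at 100 μL/min with water and acetonitrile, each with 0.1% formic acid. Detection was by quadrupole time-of-flight mass spectrometry in positive and negative ionization mode, with a dead volume of 40 μL and a dwell volume of 900 μL.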
row,RP-LC retention time,SMILES
1,913 s,CCOc1ccc(NC(=O)N2CCc3cn(C)c4cccc(c34)C2)cc1
2,895 s,O=C(CCc1ccccc1)NCCc1c[nH]c2ccc(Cl)cc12
3,920 s,CCC(C)NS(=O)(=O)c1cc(-c2nc(C)cs2)n(CC(=O)N2CCCCC2)c1 (centres undefined)
4,952 s,Cc1cc(NC(=O)C(C)C2CCN(C(=O)Nc3ccc(Cl)cc3)CC2)ccc1F (centres undefined)
5,840 s,CCc1noc(-c2ccnc(-n3ncc(C(=O)N4CCCC4)c3C)c2)n1
6,1170 s,CCOC(=O)C(=O)Nc1ccc(-c2nc(-c3ccc(C)cc3C)co2)cc1
7,751 s,CCc1cccc(NC(=O)N2CCC(c3cc(N)on3)CC2)c1
8,570 s,O=C(CCC1CCCN(c2cc(NC3CC3)ncn2)C1)NC1CCN(Cc2ccccc2)CC1 (centres undefined)
9,615 s,O=C(Cn1nc(-c2ccco2)ccc1=O)N1CCN(c2ncccn2)CC1
10,578 s,Cc1cc(C(=O)NCc2ccc(N(C)C)cc2)c2c(=O)n(C)c(=O)n(C)c2n1
11,677 s,CCn1cc(CCN2CCN(S(=O)(=O)c3ccc(C)c(F)c3)CC2)c2cccnc21
12,723 s,Cc1cc(NCC2CCCO2)n2nc(-c3ccc(Cl)cc3)c(C)c2n1 (centres undefined)
13,668 s,O=C(Cc1ccsc1)Nc1cccc(-c2nnc3n2CCCC3)c1
14,978 s,COc1ccc(-c2noc(C3CCCN3C(=O)C3CCCC3)n2)cc1 (centres undefined)
15,798 s,Cc1ccc(S(=O)(=O)N2CCC3(CC2)NCCN=C3NCc2cc(F)cc(F)c2)cc1C
16,1030 s,COC(=O)c1cc(C2CC2)nc2c1c(=O)n(Cc1ccccc1)c(=O)n2C
17,554 s,CC(C)n1c(=O)c(NCc2ccc(N3CCCCC3)cc2)nc2ccncc21
18,716 s,CCCn1ncc(N2CCC(C(=O)NC(C)c3cccs3)CC2)cc1=O (centres undefined)
19,806 s,CCCN1C(=O)COc2ccc(-c3csc(NC(C)=O)n3)cc21
20,790 s,Cc1ccc(C)c(N2CCN(C(=O)Cn3c(=O)c4nncn4c4ncccc43)CC2)c1
21,774 s,CCOC(=O)c1noc2nc(C)nc(NCCCN3CCN(c4cc(C)ccc4C)CC3)c12
22,885 s,COC(=O)c1cnn2c(C)c(Cc3ccc(C)cc3)c(C)nc12
23,874 s,CCOC(=O)c1c(S(=O)(=O)N2CCC(C(=O)Nc3ccccc3C)CC2)c(C)n(CC)c1C

row,RP-LC retention time,SMILES
1,1020 s,Cc1ccc(-n2nc(N3CCCC(C(=O)Nc4ccc(F)cc4F)C3)ccc2=O)cc1Cl (centres undefined)
2,621 s,COCCN1C(=O)c2ccccc2C(C(=O)N2CCN(c3ccccn3)CC2)C1c1cccs1 (centres undefined)
3,672 s,CCCCN(CCCNC(=O)C1CCN(S(=O)(=O)CCC)CC1)Cc1ccccc1
4,722 s,CNC(=O)C1CN(C(=O)Cc2ccc(C)cc2)CC12CCCC2 (centres undefined)
5,575 s,CCn1c(N2CCCC(C(=O)NCc3cccnc3)C2)cc(=O)n(C)c1=O (centres undefined)
6,620 s,COCCOCC1CCN(C(=O)CNC(=O)c2ccccc2)CC1
7,614 s,CCN1CCN(CCNC(=O)c2cc3n(n2)CCCN(Cc2ccc(C)cc2)C3=O)CC1
8,554 s,Cn1c(C2CCN(C(=O)c3cccc(Cl)c3)C2)nc2ccncc21 (centres undefined)
9,660 s,COCCn1c(CC2CCN(C(=O)Nc3ccc(F)c(Cl)c3)C2)nc2cccnc21 (centres undefined)
10,529 s,CCN(CC)c1ccc(NC(=O)CSc2ccc(N3CCCC(C(=O)NC4CC4)C3)nn2)c(C)c1 (centres undefined)
11,725 s,Cc1cccc(N2CCN(C(=O)C3CCN(C(=O)C4Sc5ccccc5NC4=O)CC3)CC2C)c1 (centres undefined)
12,1080 s,C=CCN1C(=O)COc2ccc(-c3nc(NC(=O)C4CCCCC4)sc3C)cc21
13,1170 s,COc1ccc(CN2C=C(C(=O)OCc3ccccc3Cl)C(C)=NS2(=O)=O)cc1
14,619 s,CCCN(C(=O)Nc1cccc(C)c1C)c1nc(-c2ccc(C3CCCCC3)cc2)cs1
15,1230 s,Cc1ccc(CNS(=O)(=O)c2cc(-c3cc(C(F)(F)F)on3)sc2C)cc1
16,1120 s,Cc1nc(-c2ccc(C(F)(F)F)cc2)ncc1C(=O)NCCc1cccs1
17,783 s,Cc1ccc(CN2C(=O)C3(CCOCC3)CC2c2nnnn2C(C)(C)C)cc1 (centres undefined)
18,589 s,Cc1ccc2cc(CCC(=O)NCCc3ccncc3)c(=O)[nH]c2c1
19,585 s,CCN(CC)CCCNC(=O)c1cc(C)nc2ccc(Br)cc12
20,644 s,CCn1nc(C)c(CCN(C)C(=O)Nc2cccc(C(=O)OC)c2)c1C
21,896 s,CCn1nc(CNC(=O)c2ccc(F)c(F)c2)c2ccccc21
22,1010 s,CCn1c(C(=O)N(C)C2CCCCC2)cc2c(=O)oc3ccccc3c21
23,530 s,COc1ccc(S(=O)Cc2ccc(C(=O)NCCN(C)C)o2)cc1 (centres undefined)

# More lines, now with the values behind:
row,SMILES,RP-LC retention time
1,O=C(Nc1cnc(-c2ccccc2)nc1)c1ccc(F)c(F)c1,1030 s
2,O=S(=O)(Cc1cccc(Cl)c1)NCCc1noc(-c2ccccc2)n1,971 s
3,Cc1ccc(C2CC(=O)c3cnc(Nc4nc(C)c5ccc(C)cc5n4)nc3C2)cc1 (centres undefined),808 s
4,CSc1cccc(NC(=O)Nc2cccc(-c3ccc(N4CCCC4)nn3)c2)c1,712 s
5,COc1ccc(OC)c(NC(=O)N(C)Cc2nc3cc(C(=O)N(C)C)ccc3n2C)c1,605 s
6,Cc1ccccc1-c1nc2cnccn2c1NCCC(=O)NCc1cccs1,649 s
7,c1cc(-c2noc(-c3n[nH]c4c3CCCC4)n2)cc(-c2ccn[nH]2)c1,836 s
8,COc1cc(OC)cc(N2C(=O)C3N=NN(Cc4nc(-c5cccc(Cl)c5)no4)C3C2=O)c1 (centres undefined),1020 s
9,O=C(Nc1ccccc1C(F)(F)F)NC1CCN(c2ccccc2)C1=O (centres undefined),841 s
10,COc1ccc(OC)c(S(=O)(=O)N2CC(c3nc(-c4ccsc4)nn3C)C2)c1,816 s
11,CCCC(=O)N1CCc2c([nH]c3ccccc23)C1c1ccc(Cl)cc1 (centres undefined),578 s
12,COc1cc(NC(=O)N(C)Cc2nc3cc(C(=O)N(C)C)ccc3n2C)cc(OC)c1,610 s
13,COC(=O)c1ccccc1Nc1c(-c2ccc(N(C)C)cc2)nc2cnccn12,921 s
14,Cc1nc(-c2cc3cccc(C)c3nc2N2CCN(c3ccccc3F)CC2)no1,733 s
15,COc1ccc(C(=O)N2CCC(n3c(-c4ccoc4)nc4cccnc43)C2)cc1 (centres undefined),659 s
16,CCc1ccc(S(=O)(=O)NCCc2csc(-c3cccnc3)n2)s1,734 s
17,COc1cccc(-c2noc(Cn3ccn(-c4ccc(Cl)cc4)c(=O)c3=O)n2)c1OC,824 s
18,Cc1nc(Cn2cccc2C(=O)Nc2ccccc2)no1,820 s
19,COCc1nc(CCNS(=O)(=O)c2ccc(F)cc2)no1,731 s
20,CCCc1noc(-c2nnn3c2COC(c2ccc(F)cc2)C3)n1 (centres undefined),1040 s
21,COCCCn1cnc2c(-c3ccccc3)cn(CC(=O)NCc3ccco3)c2c1=O,802 s
22,COc1ccc(S(=O)(=O)Nc2cc(-c3cn4ccccc4n3)ccc2C)cc1C,682 s

row,SMILES,RP-LC retention time
1,COc1ccc(NS(=O)(=O)c2cc(-c3nc(C(C)(C)C)cs3)cs2)cc1F,1180 s
2,CN(C(=O)Cn1cccc1-c1nc(-c2ccccc2)no1)c1ccccc1,1100 s
3,CCOc1ccc(-c2nc(-c3ccc4c(c3)oc(=O)n4C)no2)cc1OCC,1110 s
4,Cc1cc(C(=O)Nc2nc3c(C)cc(Cl)cc3s2)on1,985 s
5,CCCn1cnc2ccc(-c3noc(-c4ccccc4F)n3)cc21,812 s
6,O=C(CC1CCCC1)N1CC(c2nc(-c3ccccc3)no2)C2(CCOCC2)C1 (centres undefined),923 s
7,CC(C)(C)n1nc2c(c1-n1cccc1)CN(C(=O)C1COc3ccccc3O1)C2 (centres undefined),1050 s
8,O=c1ccc(-c2ccc(F)cc2)nn1CCc1nc(-c2ccc3c(c2)OCO3)no1,933 s
9,Cc1cc(Oc2ncnc3c2cnn3-c2ccc(Cl)cc2)ccc1[N+](=O)[O-],1270 s
10,O=S(=O)(c1cccc(C(F)(F)F)c1)N1CCN(c2cnn3cnnc3c2)CC1,668 s
11,CCNC(=O)NCc1nc(-c2ccc(Cl)cc2)no1,752 s
12,Cc1cccc(NC(=O)N2CCCC2C(=O)N(C)C)c1 (centres undefined),643 s
13,O=C(NCc1cccs1)NC1CC(=O)N(C2CC2)C1 (centres undefined),589 s
14,CCC(=O)N1CCc2c(sc3ncnc(N)c23)C1,575 s
15,COC(=O)C1=CN(c2ccc(C)cc2C)c2ccccc2S1(=O)=O,869 s
16,O=C(NC1(c2nc(-c3ccncc3)no2)CCCCC1)c1ccc(C(F)(F)F)cc1,1030 s
17,COCCNC(=O)Nc1nc(-c2ccccc2)c(C(C)=O)s1,685 s
18,NS(=O)(=O)c1ccc(NC(=O)CCCN2C(=O)c3cccc4cccc(c34)C2=O)cc1,694 s
19,CNC(=O)[C@@H]1CN(C(=O)Cc2c(C)noc2C)C[C@H]1c1nc(C)no1,599 s
20,Cc1cc(NC(C)C)n2nc(-c3ccc(C(C)(C)C)cc3)nc2n1,988 s
21,CC1CCN(S(=O)(=O)c2ccc3c(c2)-c2oncc2CO3)CC1,673 s
